The values that follow come from ChEMBL document CHEMBL1201862, “PubChem BioAssay data set” (2004).

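Following 48 hours of exposure in 96-well plates, responses at five concentrations were used to interpolate endpoints linearly. The concentration for 50% growth inhibition is given as GI50.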 Activity calls are given as the source filed them. Cut-off read from the data, not from the text of the source: active = GI50 up to about 1.1 µM and inactive = higher.

Some test systems named below: HCC 2998; MCF7; SNB-19; SF-539; SK-MEL-2; MDA-MB-231; MOLT-4; NCI-H23; KM12; MDA-MB-435; U-251; COLO 205; OVCAR-3; LOX IMVI; BT-549; HT-29; K562; 786-0; T47D.
What all share (test): NCI-60 cell line screen, 48 h

In the case of `COc1ccccc1N1C(=O)CC(=O)N(C(=O)CCCCCCCCC(=O)N2C(=O)CC(=O)N(c3ccccc3OC)C2=S)C1=S`, the GI50 was > 100 µM (inactive) in the test with HCC 2998; 44.2 µM (inactive) in the test on MCF7; 74.1 µM (inactive) with SNB-19; > 100 µM (inactive) in the test on SF-539; > 100 µM (inactive) with SK-MEL-2; 43.7 µM (inactive) in the test on MDA-MB-231. In addition, the GI50 is 35.1 µM (inactive) in the test on MOLT-4; 53.6 µM (inactive) with NCI-H23; 53.8 µM (inactive) with KM12; > 100 µM (inactive) in the test with MDA-MB-435; 70 µM (inactive) with U-251; > 100 µM (inactive) with COLO 205. In addition, the GI50 in the test with OVCAR-3 was 55.2 µM (inactive); in the test on LOX IMVI, 95.3 µM (inactive); in the test with BT-549 it was 55.3 µM (inactive); in the test on HT-29 it was 49.4 µM (inactive); in the test with K562, 38.1 µM (inactive); with 786-0, > 100 µM (inactive). For the same compound, the GI50 in the test on T47D was 87.3 µM (inactive).

For `CCOC(OCC)[C@@H]1C[C@@H]2N(O[C@H](OC3CCCC3(c3ccccc3)c3ccccc3)[C@H](OC(C)=O)[C@@]2(CC)Cc2ccc(OC)c(OC)c2)O1` (some centres undefined), the GI50 with HCC 2998, in the test with MCF7, with SNB-19, in the test with SF-539, in the test on SK-MEL-2 and in the test on MDA-MB-231 was > 100 µM (inactive) in each case. Further, the GI50 in the test on MOLT-4, in the test on NCI-H23, in the test with KM12, in the test with MDA-MB-435, in the test on U-251 and with COLO 205 was > 100 µM (inactive) each time. The GI50 in the test with OVCAR-3, with LOX IMVI, in the test on BT-549, in the test on HT-29, in the test on K562 and with 786-0 was > 100 µM (inactive) throughout. Moreover, the GI50 in the test with T47D was > 100 µM (inactive).

Take `O=[N+]([O-])/C=C/c1cccc(F)c1`: the GI50 is 12 µM (inactive) with HCC 2998; 1.05 µM (active) with MCF7; 11.7 µM (inactive) in the test on SNB-19; 4.45 µM (inactive) with SF-539; 12.4 µM (inactive) in the test on SK-MEL-2; 16.4 µM (inactive) with MDA-MB-231. Further, the GI50 was 3.48 µM (inactive) with NCI-H23; 2.95 µM (inactive) in the test with KM12; 3.24 µM (inactive) with MDA-MB-435; 3.53 µM (inactive) in the test on U-251; 2.74 µM (inactive) in the test with COLO 205; 2.39 µM (inactive) with OVCAR-3. The GI50 was 0.912 µM (active) in the test with LOX IMVI; 2.03 µM (inactive) with BT-549; 3.18 µM (inactive) in the test on HT-29; 1.66 µM (inactive) with 786-0; 4.88 µM (inactive) with T47D.

In the case of `Cc1c(C)c2ccc(O)cc2[nH]c1=O`, the GI50 with HCC 2998, in the test with MCF7, in the test with SNB-19, in the test on SF-539, in the test with SK-MEL-2 and in the test with MDA-MB-231 was > 100 µM (inactive) each time. The GI50 in the test on MOLT-4, in the test with NCI-H23, in the test on KM12, with MDA-MB-435, with U-251 and in the test on COLO 205 was > 100 µM (inactive) each time. Further, the GI50 with OVCAR-3, in the test on LOX IMVI, in the test with BT-549, with HT-29, with K562 and with 786-0 was > 100 µM (inactive) each time. For the same compound, the GI50 in the test on T47D was > 100 µM (inactive).
